biological target: T1, Human ATX protein (Homo sapiens, UniProt Q13822); test: ATX biochemical FRET assay with FS-3 substrate; settings: FS-3 substrate 2 μM, ATX 1.0 μg/mL, 30 min preincubation, 2 hours at room temperature
T1 construct: made in house
Description: ATX (Autotaxin) is a 125 KDa glycoprotein with lysophospholipase D (LPLD) activity that generates the bioactive lipid lysophosphatidic acid (LPA) from lysophosphatidylcholine (LPC). The ATX biochemical assay utilizes a FRET (fluorescence resonance energy transfer) technology platform. The fluorescence signal of FRET substrate FS-3 is quenched due to intra-molecular FRET of a fluorophore to a non-fluorescing quencher (Ferguson, C. G., et al., Org Lett. 2006 May 11; 8(10): 2023-2026, which is incorporated by reference in its entirety). ATX catalyzes the hydrolysis of the substrate which separates the dabsyl quencher from the fluorescein reporter, which becomes fluorescent. The reaction is monitored by a SpectraMax M5 (Molecular Devices, Sunnyvale, Calif.) with at excitation wavelength 485 nm and emission wavelength […].
Fatty acid free-BSA (Sigma A8806): 10 mg/mL in H2O, stored at 4° C.
2×ATX assay buffer: 100 mM Tris, 280 mM NaCl, 10 mM KCl, 2 mM CaCl2, 2 mM MgCl2, pH 7.4.
Human ATX protein: expressed and purified in house. Stored at −80° C.
Substrate FS-3 (Echelon, L-2000): 100 μg in 77.74.L H2O (1 mM stock), stored at −20° C.
384-well flat bottom plates—Corning #3575.
Compound dilution—All compounds were provided at 10 mM in 100% DMSO. In the first well, 2 μL of 10 mM compound was added to 78 μL of DMSO (1:40 dilution). In subsequent wells 3-fold dilution (total 10 dilutions) were performed.
1×ATX assay buffer was made up with a final concentration of 1 mg/mL fatty acid free-BSA using 2×ATX assay buffer, 10 mg/ml fatty acid free-BSA and ddH2O.
ATX protein was diluted with 1×ATX assay buffer to a concentration of 1.32 μg/mL (1.32×). 38 μL was added per well to the assay plate. The final concentration of ATX in the reaction as 1.0 μg/mL.
2 μL per well of compounds was transferred to provide the desired concentration. The plate was centrifuged, then incubated at room temperature for 30 minutes on the shaker.
FS-3 was diluted with 1×ATX assay buffer to a concentration of FS-3 of 10 μM (5×). Then, 10 μL was added per well to the assay plate. The final concentration of FS-3 in the reaction was 2 μM. The plate was centrifuged. The plate was kept shaking at room temperature for 2 hours. Because FS-3 substrate is light sensitive, plates were kept covered and protected from light.
Fluorescence was measured using SpectraMax M5 (excitation at 485 nm/emission at 538 nm, top read).

IC50, ≤ 100 nM:
C[C@@H](c1ccc2c(C(F)F)c(O[C@H]3CC[C@@H](C)CC3)ccc2c1)N1CCC[C@@H](CC(=O)O)C1 [Example 100, 2-((S)-1-((S)-1-(2-(cis-4-methylcyclohexyloxy)-1-(difluoromethyl)naphthalen-6-yl)ethyl)piperidin-3-yl)acetic acid]
C[C@H]1CC[C@@H](Oc2ccc3cc(CN4CCC[C@H](CC(=O)O)C4)ccc3c2C(F)F)CC1 [Example 56, 2-((3R)-1-((6-((cis-4-Methylcyclohexyl)oxy)-5-(difluoromethyl)naphthalen-2-yl)methyl)piperidin-3-yl)acetic acid]
CCC(c1ccc2c(C(F)F)c(O[C@H]3CC[C@@H](C)CC3)ccc2c1)N1CCC[C@H](CC(=O)O)C1 (stereo partly drawn) [Example 57, 2-((3R)-1-(1-(6-((cis-4-Methylcyclohexyl)oxy)-5-(difluoromethyl)naphthalen-2-yl)propyl)piperidin-3-yl)acetic acid]
C[C@H]1CC[C@@H](Oc2ccc3cc(CN4CCC[C@H](CC(=O)O)C4)ccc3c2C(F)(F)F)CC1 [Example 49, 2-((3R)-1-((6-((cis-4-Methylcyclohexyl)oxy)-5-(trifluoromethyl)naphthalen-2-yl)methyl)piperidin-3-yl)acetic acid]
CC[C@H]1CC[C@@H](Oc2ccc3cc(CN4CCC[C@H](CC(=O)O)C4)ccc3c2C(F)(F)F)CC1 [Example 84, 2-((R)-1-((2-(cis-4-(ethyl)cyclohexyloxy)-1-(trifluoromethyl)naphthalen-6-yl)methyl)piperidin-3-yl)acetic acid]
CC(c1ccc2c(C(F)F)c(O[C@H]3CC[C@@H](C)CC3)ccc2c1)N1CCC(C(=O)O)CC1 (relative stereo) [Example 55, 1-(1-(6-((cis-4-Methylcyclohexyl)oxy)-5-(difluoromethyl)naphthalen-2-yl)ethyl)piperidine-4-carboxylic acid]
C[C@@H](c1ccc2c(C(F)F)c(O[C@H]3CC[C@@H](C)CC3)ccc2c1)N1CCC[C@H](CC(=O)O)C1 [Example 91, 2-((3R)-1-((S)-1-(6-((cis-4-Methylcyclohexyl)oxy)-5-(difluoromethyl)naphthalen-2-yl)ethyl)piperidin-3-yl)acetic acid]
CCC(c1ccc2c(C(F)(F)F)c(O[C@H]3CC[C@@H](C)CC3)ccc2c1)N1CCC[C@H](CC(=O)O)C1 (stereo partly drawn) [Example 10, 2-((3R)-1-(1-(6-((cis-4-Methylcyclohexyl)oxy)-5-(trifluoromethyl)naphthalen-2-yl)propyl)piperidin-3-yl)acetic acid]
O=C(NCCCP(=O)(O)O)c1ccc2c(C(F)(F)F)c(O[C@H]3CC[C@@H](C(F)(F)F)CC3)ccc2c1 [Example 19, (3-(5-(trifluoromethyl)-6-((cis-4-(trifluoromethyl)cyclohexyl)oxy)-2-naphthamido)propyl)phosphonic acid]

IC50, ≤ 500 nM:
O=C(O)C1CN(Cc2ccc3c(C(F)(F)F)c(O[C@H]4CC[C@@H](C(F)(F)F)CC4)ccc3c2)CCC1O (relative stereo) [Example 35, 4-hydroxy-1-((5-(trifluoromethyl)-6-((cis)-4-(trifluoromethyl)cyclohexyloxy)naphthalen-2-yl)methyl)piperidine-3-carboxylic acid]
O=C(O)C1CCN(Cc2ccc3c(C(F)(F)F)c(O[C@H]4CC[C@@H](C(F)(F)F)CC4)ccc3c2)CC1 [Example 2, 1-((5-(trifluoromethyl)-6-((cis-4-(trifluoromethyl)cyclohexyl)oxy)-naphthalen-2-yl)methyl)piperidine-4-carboxylic acid]
CCC(c1ccc2c(C(F)(F)F)c(O[C@H]3CC[C@@H](C)CC3)ccc2c1)N1CCC(C(=O)O)CC1 (relative stereo) [Example 50, 1-(1-(6-((cis-4-Methylcyclohexyl)oxy)-5-(trifluoromethyl)naphthalen-2-yl)propyl)piperidine-4-carboxylic acid]
O=C(O)C[C@@H]1CCN(Cc2ccc3c(C(F)(F)F)c(O[C@H]4CC[C@@H](C(F)(F)F)CC4)ccc3c2)C1 [Example 71, (S)-1-((5-(trifluoromethyl)-6-((cis)-4-(trifluoromethyl)cyclohexyloxy)naphthalene-2-yl)methyl)pyrrolidine-3-acetic acid]
O=C(O)C1CCCCN1Cc1ccc2c(C(F)(F)F)c(O[C@H]3CC[C@@H](C(F)(F)F)CC3)ccc2c1 (relative stereo) [Example 29, 1-((5-(trifluoromethyl)-6-((cis)-4-(trifluoromethyl)cyclohexyloxy)naphthalen-2-yl)methyl)piperidine-2-carboxylic acid]
CCC(NC1CC(C(=O)O)C1(C)C)c1ccc2c(C(F)(F)F)c(O[C@H]3CC[C@@H](C)CC3)ccc2c1 (relative stereo) [Example 36, 2,2-dimethyl-3-(1-(6-((cis)-4-methylcyclohexyloxy)-5-(trifluoromethyl)naphthalen-2-yl)propylamino)cyclobutanecarboxylic acid]
O=C(O)C1CCCN(C(=O)c2ccc3c(C(F)(F)F)c(O[C@H]4CC[C@@H](C(F)(F)F)CC4)ccc3c2)CC1 (relative stereo) [Example 31, 1-(5-(trifluoromethyl)-6-((cis)-4-(trifluoromethyl)cyclohexyloxy)-2-naphthoyl)azepane-4-carboxylic acid]
CN(Cc1ccc2c(C(F)(F)F)c(O[C@H]3CC[C@@H](C(F)(F)F)CC3)ccc2c1)[C@H]1CC[C@@H](C(=O)O)CC1 [Example 79, N-methyl-cis-4-(((5-(trifluoromethyl)-6-(cis-4-(trifluoromethyl)cyclohexyloxy)naphthalene-2-yl)methyl)amino)cyclohexane-1-carboxylic acid]
C[C@H]1CC[C@@H](Oc2ccc3cc(C(C(=O)O)N4CCC(C(=O)O)CC4)ccc3c2C(F)(F)F)CC1 (stereo partly drawn) [Example 11, 1-(Carboxy(6-((cis-4-methylcyclohexyl)oxy)-5-(trifluoromethyl)naphthalen-2-yl)methyl)piperidine-4-carboxylic acid]
C[C@H]1CC[C@@H](Oc2ccc3cc(CN4CCOC(CC(=O)O)C4)ccc3c2C(F)(F)F)CC1 (some centres unmarked) [Example 8]
CC1(C)C(NC(c2ccc3c(C(F)(F)F)c(O[C@H]4CC[C@@H](C(F)(F)F)CC4)ccc3c2)C2CCCCC2)CC1C(=O)O (some centres unmarked) [Example 43]

IC50, ≤ 250 nM:
CC1(C)C(NC(c2ccc3c(C(F)(F)F)c(O[C@H]4CC[C@@H](C)CC4)ccc3c2)C2CC2)CC1C(=O)O (some centres unmarked) [Example 38]
O=C(O)[C@H]1CCCN(Cc2ccc3c(C(F)(F)F)c(O[C@H]4CC[C@@H](C(F)(F)F)CC4)ccc3c2)C1 [Example 26, (S)-1-((5-(trifluoromethyl)-6-((cis)-4-(trifluoromethyl)cyclohexyloxy)naphthalen-2-yl)methyl)piperidine-3-carboxylic acid]
CC(C)CC(NC1CC(C(=O)O)C1(C)C)c1ccc2c(C(F)(F)F)c(O[C@H]3CC[C@@H](C(F)(F)F)CC3)ccc2c1 (relative stereo) [Example 40, 2,2-dimethyl-3-(3-methyl-1-(5-(trifluoromethyl)-6-((cis)-4-(trifluoromethyl)cyclohexyloxy)naphthalen-2-yl)butylamino)cyclobutanecarboxylic acid]
O=C(O)C1CC(O)CN(Cc2ccc3c(C(F)(F)F)c(O[C@H]4CC[C@@H](C(F)(F)F)CC4)ccc3c2)C1 (relative stereo) [Example 81, 1-((5-(trifluoromethyl)-6-(cis-4-(trifluoromethyl)cyclohexyloxy)naphthalene-2-yl)methyl)-5-hydroxypiperidine-3-carboxylic acid]
FC(F)(F)c1c(O[C@H]2CC[C@@H](C(F)(F)F)CC2)ccc2cc(CN3CCC(c4nn[nH]n4)CC3)ccc12 [Example 5, 4-(2H-tetrazol-5-yl)-1-((5-(trifluoromethyl)-6-((cis-4-(trifluoromethyl)cyclohexyl)oxy)naphthalen-2-yl)methyl)piperidine]
CC(C(=O)O)[C@H]1CCCN(Cc2ccc3c(C(F)(F)F)c(O[C@H]4CC[C@@H](C(F)(F)F)CC4)ccc3c2)C1 (mixture of isomers) [Example 102, (S)-2-((R)-1-((5-(trifluoromethyl)-6-((cis-4-(trifluoromethyl)cyclohexyl)oxy)naphthalen-2-yl)methyl)piperidin-3-yl)propanoic acid]
